The target in one data set is T1, AChE (Mus musculus, UniProt P21836).
T1 construct: The resulting supernatant was used as an AChE source; from tissue; host or cells: mouse cerebral cortex (detergent-extracted supernatant)
Nature of the data set: Determination of AChE inhibitory activity (Ellman reagent, acetylthiocholine iodide). In kind it is biochemical, mice. As for the experimental part: In order to determine AChE inhibitory activity on each of the 20 subfractions obtained from EXAMPLE 1, 10 volumes of phosphate buffer solution (12.5 mM phosphate buffer solution at pH 7.0, including 400 mM NaCl) was added to the cerebral cortex of mice, homogenized in a Potter-Elvehjem homogenizer and centrifuged at 1,000 g for 10 min to obtain the supernatant. After adding homogenized buffer containing 0.5% triton X-100 to the supernatant, the mixtures were stirred for 30 min and centrifuged again at 10,000 for 10 min. The resulting supernatant was used as an AChE source. All extract steps were carried out at 4° C.
The freeze-dried 20 subfraction extracts of EXAMPLE 1 were initially dissolved in small amounts of distilled water and DMSO. The solution was diluted at a concentration of 200 μg/ml in phosphate buffer (100 mM sodium phosphate, pH 8.0; hereinafter called "buffer solution I"). 1.5 ml of each extract was mixed with 1.5 ml of buffer solution I, 20 μl of 75 mM acetylthiocholine iodide solution and 100 μl of buffered Ellmans reagent [10 mM DTNB (5,5-dithiobis-(2-nitrobenzoic acid)) and 17.85 mM NaHCO3 ] and incubated at 25° C. for 10 min. Absorbance was read at 410 nm immediately after adding an enzyme to the above reaction mixtures. Reading was repeated for 5 min at 30 sec intervals in order to determine AChE inhibitory activity on each subfraction. A blank control reaction was measured by substituting saline for the enzyme.
AChE activity was calculated with the absorption coefficient […]. The inhibition efficacy was expressed as a percentage of enzyme activity inhibited compared with the control value (100%).
All experiments were repeated five times, and the results were analyzed by a Wilcoxon-rank sum test and Median 2-sample test.

Data set [1] relates to scopolamine induced amnesia. Nature of the data set: Passive avoidance test, scopolamine induced amnesia. In kind it is in vivo. Conditions: rats. The procedure: Male Sprague-Dawley rates weighing 200~250 g (12~16 weeks) which had been maintained on a 12 h/12 h light-dark cycle were used for a passive avoidance test. Food and water were available ad libitum. An automated system with a shuttle box (Model PACS-30, Columbus Instruments International Company) was used to evaluate the effects of the extracts on learning and memory essentially as described (11). The shuttle box was divided into two chambers of equal size (19"L×9"W×10.875"H). These compartments were separated by a guillotine door (3" L×2.625" W). A light chamber is equipped with an illuminator. Rats can go to the dark chamber through a guillotine door. […]
At 24 hours after the training trial, scopolamine (1 mg/kg) or the same volume of saline was intraperitoneally injected to the rats. […] At 24 hours after the acquisition trial, the rat was again placed in the light compartment and latency to enter the dark compartment was measured for 180 sec (retention trial).
To investigate the effects of repeated administration of DHED, a repeated administration of DHED was intraperitoneally given to the rats at a dose of 6.25 mg/kg. Except for the fact that DHED (6.25 mg/kg) was given to the rats once a day for 5 days before the treatment with scopolamine, the latency time was measured in the same manner as in the single administration.

Data set [2] is described as follows: Single toxicity study, lethality by a single oral administration. In kind it is in vivo, rats. Conditions: rat, in vivo; after a single administration (oral). The procedure: (§1) A single toxicity study of the anti-dementia agent according to this invention was measured using rats. […] The lethality results by a single oral administration of DHED are as follows: […]

A further data set concerns rats. The data set is described as above. Particulars: single oral, 14 days. In kind it is in vivo. As for the experimental part:
as §1

Structures are written as SMILES. pIC50: −log10 of the molar value. Counter-ions that a name gives are not always drawn.

T1 sequence (P21836 32-614): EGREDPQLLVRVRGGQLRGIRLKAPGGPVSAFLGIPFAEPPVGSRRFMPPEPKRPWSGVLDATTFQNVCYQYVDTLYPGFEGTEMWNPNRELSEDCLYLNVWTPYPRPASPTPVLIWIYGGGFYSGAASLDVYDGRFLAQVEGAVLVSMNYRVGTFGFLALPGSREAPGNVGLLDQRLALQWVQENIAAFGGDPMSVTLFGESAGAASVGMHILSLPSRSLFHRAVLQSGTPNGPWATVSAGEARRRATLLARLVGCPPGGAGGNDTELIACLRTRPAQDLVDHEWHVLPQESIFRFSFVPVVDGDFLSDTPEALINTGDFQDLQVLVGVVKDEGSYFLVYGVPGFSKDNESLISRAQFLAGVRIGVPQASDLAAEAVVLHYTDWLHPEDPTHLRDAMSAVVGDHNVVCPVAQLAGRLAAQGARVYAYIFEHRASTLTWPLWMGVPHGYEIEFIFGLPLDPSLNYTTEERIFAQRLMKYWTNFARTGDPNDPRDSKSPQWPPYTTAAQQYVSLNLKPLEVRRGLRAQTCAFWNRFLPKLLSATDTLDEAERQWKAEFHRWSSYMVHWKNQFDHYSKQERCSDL

On to `C[n+]1c2n(c(=O)c3ccccc31)CCc1c-2[nH]c2ccccc12` [DHED, dehydroevodiamine-HCl], for which the pIC50 at AChE (AChE source from cerebral cortex of mice, FIG. 3, read-out: concentration required for 50% enzyme inhibition (IC50) of AChE) was 4.42. Also, the “inhibitory effect on AChE, dose dependence” value against AChE (FIG. 3) is given as “strong inhibitory effect on AChE in a dose-dependent manner”. Besides, at AChE (substrate 23 to 230 μM, DHED 40 μM, FIG. 4), the “manner of AChE inhibition (Lineweaver-Burke plots)” value was “non-competitive”. Besides, the “memory enhancement (latency in retention trial), repeated administration” value in data set [1] (6.25 mg/kg intraperitoneally once a day for 5 days before scopolamine 1 mg/kg, FIG. 6) is “may improve memory enhancement”. In addition, in data set [1] (6.25 mg/kg intraperitoneally, single, scopolamine 1 mg/kg, FIG. 5), the “memory enhancement (latency in retention trial), single administration” value is on record as “significant memory enhancement”. In data set [2], this compound registered a 50% lethal dose (LD50) of 2000 mg/kg. Also, the Mortality is recorded as 1/5 with rats (female, 1,000 mg/kg); 2/5 with rats (female, 1,500 mg/kg); 0/5 in the data set on rats (female, 2,000 mg/kg); 5/5 in the data set with rats (female, 3,000 mg/kg); 5/5 with rats (female, 4,000 mg/kg); 0/5 in the data set with rats (male, 1,000 mg/kg). Further, the Mortality in the data set with rats (male, 1,500 mg/kg) was 0/5; in the data set with rats (male, 2,000 mg/kg) it was 5/5; with rats (male, 3,000 mg/kg), 4/5; in the data set with rats (male, 4,000 mg/kg), 5/5.

For the origin of these results see patent publication US5859016A, “Memory enhancing and anti-dementia agent containing dehydroevodiamine HC1 as active ingredient” (priority 1995, dated 1999).
